For 17 compounds, activity and Percent fungal survival results are on record in article PMC8815882, “Screening the pandemic response box identified benzimidazole carbamates, Olorofim and ravuconazole as promising drug candidates for the treatment of eumycetoma” (PLoS Neglected Tropical Diseases, 2022).

The test system of this test is M. mycetomatis genome strain MM55. Nature of the test: CLSI M38-A2 based in vitro susceptibility screening (XTT or resazurin), growth at fixed concentration. Type of test: cell-based, Madurella mycetomatis. The following applies: Madurella mycetomatis; for Percent fungal survival at 100 µM: read-out: Percentage survival at 100um, 100 uM A (second replicate column). For orientation: Tetrazolium assays rely on reduction of a dye to a coloured formazan, in cell work by metabolically active cells.

Where [1] appears, read: 25 uM, replicate A, read-out: Percentage survival at 25um, 25 um A.
[2] abbreviates: first replicate column, read-out: Percentage survival at 100um, 100 uM A.
[3] abbreviates: mean of three replicates, read-out: Percentage survival at 100um, 100 uM mean.
The mark [4] stands for this setting: second replicate column, read-out: Percentage survival at 100um, 100 uM A.
The mark [5] stands for this setting: third replicate column, read-out: Percentage survival at 100um, 100 uM A.
[6] abbreviates: 25 uM, mean of replicates, read-out: Percentage survival at 25um, 25 uM mean.
The mark [7] stands for this setting: 25 uM, replicate B, read-out: Percentage survival at 25um, 25 uM B.
Setting [8] is: 25 uM, replicate C, read-out: Percentage survival at 25um, 25 uM C.
Where [9] appears, read: mean of replicates, read-out: Percentage survival at 100um, 100 uM mean.
The mark [10] stands for this setting: replicate 1, read-out: Percentage survival at 100um, 100 uM A.
Where [11] appears, read: replicate 2, read-out: Percentage survival at 100um, 100 uM A.
[12] abbreviates: replicate 3, read-out: Percentage survival at 100um, 100 uM A.
Where [13] appears, read: 25 uM, mean of three replicates, read-out: Percentage survival at 25um, 25 uM mean.
[14] abbreviates: 25 uM, mean, read-out: Percentage survival at 25um, 25 uM mean.
The mark [15] stands for this setting: mean, read-out: Percentage survival at 100um, 100 uM mean.
Where [16] appears, read: replicate (first column), read-out: Percentage survival at 100um, 100 uM A.
Where [17] appears, read: replicate (second column), read-out: Percentage survival at 100um, 100 uM A.
Setting [18] is: replicate (third column), read-out: Percentage survival at 100um, 100 uM A.
Setting [19] is: replicate 1, read-out: Percentage survival at 100um, 100 uM A (first replicate column).
[20] abbreviates: replicate 3, read-out: Percentage survival at 100um, 100 uM A (third replicate column).
Setting [21] is: 25 uM, mean of replicates, MM55, read-out: Percentage survival at 25um, 25 uM mean.
Setting [22] is: 25 uM, replicate A, MM55, read-out: Percentage survival at 25um, 25 um A.
[23] abbreviates: 25 uM, replicate B, MM55, read-out: Percentage survival at 25um, 25 uM B.
The mark [24] stands for this setting: 25 uM, replicate C, MM55, read-out: Percentage survival at 25um, 25 uM C.
[25] abbreviates: mean of replicates, MM55, read-out: Percentage survival at 100um, 100 uM mean.
[26] abbreviates: replicate 1, MM55, read-out: Percentage survival at 100um, 100 uM A.
Setting [27] is: replicate 2, MM55, read-out: Percentage survival at 100um, 100 uM A.
[28] abbreviates: replicate 3, MM55, read-out: Percentage survival at 100um, 100 uM A.

Where two headings read alike, the source gives them in different places.

As for `CCCCc1ccc(C(=O)O)nc1` [MMV001726], the activity at 25 µM runs as follows: under setting [1], 92.6%; (read-out: Percentage survival at 25um, 25 uM B) 104%; (read-out: Percentage survival at 25um, 25 uM C) 77.4%; (read-out: Percentage survival at 25um, 25 uM mean) 91.3%. In addition, the activity at 100 µM was 91.2% under setting [2], 74.3% under setting [3], 61.7% under setting [4] and 69.8% under setting [5].

For `CN(C)[C@@H]1C(=O)C(C(N)=O)=C(O)[C@@]2(O)C(=O)C3=C(O)c4c(O)c(NC(=O)CN5CCCC5)cc(F)c4C[C@H]3C[C@@H]12` [MMV1578574], the activity at 25 µM was 74.6% under setting [6], 58% under setting [1], 94% under setting [7] and 72% under setting [8]. Further, the activity at 100 µM reads like this: under setting [9], 93%; under setting [10], 92.7%; under setting [11], 96.8%; under setting [12], 89.4%.

Regarding `O=c1oc2ccc(Br)cc2cc1CSc1ncc[nH]1` [MMV1782105], the activity at 25 µM was determined as 79.9% under setting [13], 77.1% under setting [1], 83.9% under setting [7] and 78.6% under setting [8]. Further, the activity at 100 µM runs as follows: under setting [2], 62.8%; under setting [3], 63.6%; under setting [4], 59.4%; under setting [5], 68.5%.

For the compound `COc1ccc2c(c1)cc(CNC(=O)c1cc3ccccc3o1)n2CC(=O)O` [MMV1581553], the activity at 25 µM reads like this: under setting [14], 76.7%; under setting [1], 87.4%; under setting [7], 70.5%; under setting [8], 72.3%. Also, the activity at 100 µM by setting is: under setting [15], 88.6%; under setting [16], 90%; under setting [17], 85%; under setting [18], 90.9%.

On to `O=C(NN1C(=O)[C@@H]2C3C=CC([C@H]4C[C@@H]34)[C@@H]2C1=O)c1ccc(C(F)(F)F)cc1` [MMV1782114], for which the activity at 25 µM worked out at 90.1% under setting [13], 95.2% under setting [1], 94.5% under setting [7] and 80.6% under setting [8]. Also, the activity at 100 µM under setting [3] was found to be 84.5%, the activity at 100 µM under setting [19] came to 90% and the activity at 100 µM under setting [20] came out at 85%. Further, the Percent fungal survival at 100 µM (replicate 2) was found to be 78.4%.

Consider `O=c1cc(NCCCN[C@@H]2CCOc3c(Br)cc(Br)cc32)[nH]c2ccsc12` [MMV1578884], for which the activity at 25 µM under setting [6] was 96.9%, the activity at 25 µM under setting [1] came to 100%, the activity at 25 µM under setting [7] worked out at 95.5% and the activity at 25 µM under setting [8] stood at 94.6%. Besides, the activity at 100 µM under setting [9] was 88.3%, the activity at 100 µM under setting [10] was 93%, the activity at 100 µM under setting [11] was 86.8% and the activity at 100 µM under setting [12] turned out to be 85.3%.

Regarding `Nc1cnn(C2OC(CO)C(O)C2O)c(=O)n1` (stereo not shown) [MMV1580495], the activity at 25 µM reads like this: under setting [13], 87.3%; under setting [1], 82%; under setting [7], 95.9%; under setting [8], 84%. Moreover, the activity at 100 µM is, setting by setting: under setting [2], 88.8%; under setting [3], 82%; under setting [4], 84.2%; under setting [5], 72.9%.

Turning to `COc1ccc(SC(=O)N[C@H](CCC(=O)O)C(=O)O)cc1` [MMV1580846], the activity at 25 µM under setting [6] was found to be 85%, the activity at 25 µM under setting [1] worked out at 78.8%, the activity at 25 µM under setting [7] was determined as 91.4% and the activity at 25 µM under setting [8] is 84.8%. Also, the activity at 100 µM is, setting by setting: under setting [9], 45.7%; under setting [10], -2.83%; under setting [11], 55.8%; under setting [12], 84.3%.

As for `O=C(NCc1ccc(F)cc1)c1c(O)c2ncccc2[nH]c1=O` [MMV1782097], the activity at 25 µM under setting [21] amounted to 95.5%, the activity at 25 µM under setting [22] worked out at 97.7%, the activity at 25 µM under setting [23] stood at 100% and the activity at 25 µM under setting [24] was determined as 88.2%. Besides, the activity at 100 µM stood at 82.8% under setting [25], 86.6% under setting [26], 79.1% under setting [27] and 82.7% under setting [28].

As to `O=C(O)COc1cccc2c1CC[C@](O)(COC(=O)N(c1ccccc1)c1ccccc1)C2` [MMV1782352], the activity at 25 µM reads like this: under setting [21], 89.4%; under setting [22], 92.5%; under setting [23], 96.3%; under setting [24], 79.5%. For the same compound, the activity at 100 µM is 88.8% under setting [25], 91.1% under setting [26], 97.6% under setting [27] and 77.7% under setting [28].

`NC(=O)c1nccn([C@@H]2O[C@H](CO)[C@@H](O)[C@H]2O)c1=O` [MMV1782104]: the activity at 25 µM reads like this: under setting [13], 99.8%; under setting [1], 102%; under setting [7], 107%; under setting [8], 90.3%. Further, the activity at 100 µM amounted to 97.1% under setting [2], 86.1% under setting [3], 97.7% under setting [4] and 63.4% under setting [5].

On to `Cc1cc(C2CCCCC2)n(O)c(=O)c1` [MMV002731], for which the activity at 25 µM is, setting by setting: under setting [14], 32%; under setting [1], -3.44%; under setting [7], 96.3%; under setting [8], 3.22%. The activity at 100 µM under setting [15] came to 5.09%, the activity at 100 µM under setting [16] was -2.39%, the activity at 100 µM under setting [17] was 6.16% and the activity at 100 µM under setting [18] is 11.5%.

As to `Nc1nc(-c2ccccc2)nc2c1ncn2[C@@H]1O[C@H](COS(=O)(=O)NC(=O)c2ccccc2O)[C@@H](O)[C@H]1O` [MMV1582488], the activity at 25 µM by setting is: under setting [6], 78%; under setting [1], 74.7%; under setting [7], 83.6%; under setting [8], 75.7%. The activity at 100 µM by setting is: under setting [9], 72.1%; under setting [10], 75.9%; under setting [11], 69.3%; under setting [12], 71.1%.

Take `CC[C@@]1(O)C(=O)OCc2c1cc1n(c2=O)Cc2cc3c(CN(C)C)c(O)ccc3nc2-1` [MMV1633678]: the activity at 25 µM reads like this: under setting [13], 101%; under setting [1], 86.9%; under setting [7], 110%; under setting [8], 108%. Moreover, the activity at 100 µM by setting is: under setting [2], 94.8%; under setting [3], 89.5%; under setting [4], 86.7%; under setting [5], 86.9%.

Consider `CC1(C)CC(NC(=O)C(=O)Nc2ccc(Cl)cc2)CC(C)(C)N1` [MMV1580501], for which the activity at 25 µM worked out at 79.5% under setting [21], 75.9% under setting [22], 89.4% under setting [23] and 73.3% under setting [24]. Further, the activity at 100 µM was 74.7% under setting [25], 76.9% under setting [26], 78.1% under setting [27] and 69% under setting [28].

As for `CN1c2ccc(Cl)cc2N(c2ccccc2)C(=O)c2cn(Cc3ccc(CN4CCOCC4)cc3)nc21` [MMV1782222], the activity at 25 µM came out at 61.1% under setting [6], 58.9% under setting [1], 64.9% under setting [7] and 59.6% under setting [8]. In addition, the activity at 100 µM reads like this: under setting [9], 60.2%; under setting [19], 52.1%; under setting [20], 58.2%. The Percent fungal survival at 100 µM (replicate 2) was 70.5%.

As for `O=[N+]([O-])c1cn2c(n1)OC[C@@H](OCc1ccc(OC(F)(F)F)cc1)C2` [MMV688755], the activity at 25 µM under setting [6] turned out to be 85.3%, the activity at 25 µM under setting [1] was 91.8%, the activity at 25 µM under setting [7] amounted to 92.4% and the activity at 25 µM under setting [8] was 71.7%. Also, the activity at 100 µM by setting is: under setting [9], 85.9%; under setting [10], 75%; under setting [11], 105%; under setting [12], 77.3%.
